Results on 18 compounds are retold here after patent US8470825B2, “Diazabenzo[de] anthracen-3-one compounds and methods for inhibiting PARP” (Eisai Inc., priority 2005, dated 2013).

In series [1] the target is purified recombinant human PARP (Homo sapiens (Human), UniProt P09874). The experiment in a line: PARP enzyme assay (IC50). It is filed as biochemical. The following applies: approximate IC50 values. As to the method: A convenient method to determine IC50 of a PARP inhibitor compound is a PARP assay using purified recombinant human PARP from Trevigan (Gaithersburg, MD), as follows: The PARP enzyme assay is set up on ice in a volume of 100 microliters consisting of 100 mM Tris-HCl (pH 8.0), 1 mM MgCl2, 28 mM KCl, 28 mM NaCl, 0.1 mg/ml of DNase I activated herring sperm DNA (Sigma, Mo.), 3.0 micromolar [3H]nicotinamide adenine dinucleotide (470 mci/mmole), 7 micrograms/ml PARP enzyme, and various concentrations of the compounds to be tested. The reaction is initiated by incubating the mixture at 25° C. After 15 minutes of incubation, the reaction is terminated by adding 500 microliters of ice cold 20% (w/v) trichloroacetic acid. The precipitate formed is transferred onto a glass fiber filter (Packard Unifilter-GF/B) and washed three times with ethanol. After the filter is dried, the radioactivity is determined by scintillation counting.
Sequence of purified recombinant human PARP (P09874 whole entry): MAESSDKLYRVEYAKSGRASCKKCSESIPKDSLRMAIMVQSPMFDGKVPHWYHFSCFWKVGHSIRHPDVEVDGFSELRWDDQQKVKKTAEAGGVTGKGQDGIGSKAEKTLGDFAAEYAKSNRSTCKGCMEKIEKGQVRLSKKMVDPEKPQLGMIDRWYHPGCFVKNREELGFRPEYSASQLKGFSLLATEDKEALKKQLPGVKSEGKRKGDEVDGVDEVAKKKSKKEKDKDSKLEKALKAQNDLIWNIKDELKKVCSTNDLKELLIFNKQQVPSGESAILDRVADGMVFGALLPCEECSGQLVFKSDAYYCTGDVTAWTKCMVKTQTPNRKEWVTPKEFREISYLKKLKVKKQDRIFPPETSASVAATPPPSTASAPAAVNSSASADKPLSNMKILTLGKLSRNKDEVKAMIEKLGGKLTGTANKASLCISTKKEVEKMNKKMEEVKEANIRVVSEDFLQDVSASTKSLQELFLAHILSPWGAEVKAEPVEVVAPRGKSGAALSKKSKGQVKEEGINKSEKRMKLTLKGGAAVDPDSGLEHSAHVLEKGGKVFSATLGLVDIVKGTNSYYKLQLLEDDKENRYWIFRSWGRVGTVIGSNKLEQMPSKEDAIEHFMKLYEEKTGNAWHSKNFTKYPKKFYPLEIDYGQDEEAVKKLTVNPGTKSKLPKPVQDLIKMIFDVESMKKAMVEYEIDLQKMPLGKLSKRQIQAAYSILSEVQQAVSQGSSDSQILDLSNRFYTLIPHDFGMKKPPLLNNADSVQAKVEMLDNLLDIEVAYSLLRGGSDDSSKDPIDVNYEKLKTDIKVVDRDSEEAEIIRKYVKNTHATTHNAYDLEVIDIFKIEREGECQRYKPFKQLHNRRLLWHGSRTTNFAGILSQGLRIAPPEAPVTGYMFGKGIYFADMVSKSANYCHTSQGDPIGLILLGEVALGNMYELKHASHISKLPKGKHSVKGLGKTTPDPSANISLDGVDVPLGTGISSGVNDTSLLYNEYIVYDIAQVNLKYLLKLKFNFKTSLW

The subject of another series is B16 melanoma. The experiment in a line: Subcutaneous B16 melanoma growth in mice, compound + temozolomide. The settings on record: Compound 4i 40 mg/kg po + TMZ 100 mg/kg ip once a day for five days; s.c. tumor; day 9 to day 23. It is filed as in vivo. As for the experimental part: The efficacy of TMZ±Compound 4i treatment was also evaluated on melanoma growing subcutaneously (s.c.) in mice. For this purpose B16 cells (2.5×10^5) were inoculated s.c. in the flank of the animal. Tumors were measured with calipers and volume calculated according to the formula: [(width)^2×length]/2. Drug treatment started 6 days after challenge, when the volume of tumor nodules reached 100-150 mm^3. Compound 4i (40 mg/kg po) was administered at 20 min before temozolomide (100 mg/kg ip) once a day for five days. Melanoma growth was monitored by measuring tumor nodules every 3 days for 3 weeks.

For series [2], the system named is Murine melanoma B16 cells. The series is described as follows: Survival of mice bearing intracranial B16 melanoma, compound + temozolomide. It is filed as in vivo. The settings on record: for MST: B16 melanoma in brain; for ILS vs TMZ: increase in lifespan. As to the method: The intracranial transplantation procedure was performed as described in Tentori L. et al., “Effects of single or split exposure of leukemic cells to temozolomide, combined with poly(ADP-ribose) polymerase inhibitors on cell growth, chromosomal aberrations and base excision repair components,” Cancer Chemother Pharmacol, 47, 361-9 (2001). Murine melanoma B16 cells (10^4) were injected intracranially (ic) into male B6D2F1 (C578L/6×DBA/2) mice. Histological evaluation of tumor growth in the brain was performed 1-5 days after tumor challenge, in order to determine the timing of treatment.
Compound 4i was dissolved in 70 mM PBS without potassium and administered po 1 h before temozolomide (TMZ). TMZ was dissolved in dimethyl-sulfoxide (40 mg/ml), diluted in saline (5 mg/ml) and administered ip at a dose of 100 mg/Kg for five days. Mice were treated with compound 4i by oral gavages once a day for five days, at doses of 10 or 40 mg/kg/day. Median survival times (MST) were determined and the percentage of increase in lifespan (ILS) was calculated as: {[MST (days) of treated mice/MST (days) of control mice]−1}×100. Efficacy of treatments was evaluated by comparing survival curves between treated and control groups.

The nature of series [3]: Sensory nerve conduction velocity (SNCV) in cisplatin-induced neuropathy in rats. It is filed as in vivo. The following applies: for SNCV at the end of the experiment, mean: tail nerve; for tail nerve conduction velocity impairment due to chronic cisplatin treatment: co-administration of compound 4i 40 mg/kg PO daily. As for the experimental part: In this experiment, female Wistar Hannover rats were dosed with neuropathy inducing doses of cisplatin (2 mg/kg IP; twice a week for 4 weeks) with and without compound 4i (40 mg/kg PO daily). The rats were monitored for changes in sensory nerve conduction velocity (SNCV) in the caudal nerve at baseline (pre-cisplatin dosing) and after treatment. Additionally, dorsal root ganglion and sciatic nerve specimens with morphometric analysis on dorsal root ganglion neurons (somatic, nuclear and nucleolar size) were assessed histopathologically. At the beginning and end of the treatment period, each animal underwent the determination of SNCV in the tail as previously described in Cavaletti et al., “Protective Effects of glutathione on cisplatin neurotoxicity in rats,” Int. J. Radiation Oncology, 29, 771-776 (1994) and […] et al., “Low-Dose Glutathione administration in the prevention of cisplatin-induced peripheral neuropathy in rats,” Neuro toxicology, 15, 701-704 (1994). The antidromic SNCV in the tail nerve was assessed by placing recording ring electrodes distally in the tail, while the stimulating ring electrodes were placed 5 cm and 10 cm proximally with respect to the recording point. The latencies of the potentials recorded at the 2 sites after nerve stimulation were determined (peak-to-peak) and nerve conduction velocity was calculated accordingly. The differences in nerve conduction velocity, and in morphometric data obtained in dorsal root ganglia neurons during the experiment were statistically evaluated using the analysis of variance (ANOVA) and the Tukey-Kramer post-test (significance level set at p<0.05).

For a further series, the system named is DRG neurons. The experiment in a line: DRG neuron morphometry in cisplatin-induced neuropathy in rats. It is filed as in vivo. As for the experimental part:
In this experiment, female Wistar Hannover rats were dosed with neuropathy inducing doses of cisplatin (2 mg/kg IP; twice a week for 4 weeks) with and without compound 4i (40 mg/kg PO daily). The rats were monitored for changes in sensory nerve conduction velocity (SNCV) in the caudal nerve at baseline (pre-cisplatin dosing) and after treatment. Additionally, dorsal root ganglion and sciatic nerve specimens with morphometric analysis on dorsal root ganglion neurons (somatic, nuclear and nucleolar size) were assessed histopathologically. Left L5 dorsal-root ganglia (DRG) of rats from each group were obtained from the sacrificed animals and processed according to previously reported protocols [Cavaletti et al.: […] et al]], resin embedded, and used for light and electron microscope observations and morphometry. On 1 μm thick semithin sections, morphometric determinations of the cross sectional area of the somata, nuclei and nucleoli of DRG neurons were performed using an image analysts software (Image J, NIH). The differences in nerve conduction velocity, and in morphometric data obtained in dorsal root ganglia neurons during the experiment were statistically evaluated using the analysis of variance (ANOVA) and the Tukey-Kramer post-test (significance level set at p<0.05).

Where [4] appears, read: Tukey's multiple comparison test.

Molecules are shown by their SMILES.

One may read the IC50 as the point on the concentration scale where inhibition reaches its midpoint. As to `O=c1[nH]nc2c3c(cccc13)Oc1ccc(CNCCN3CCOCC3)cc1-2` [Compound 4q, 10-[(2-Morpholin-4-yl-ethylamino)-methyl]-2H-7-oxa-1,2-diaza-benzo[de]anthracen-3-one], the IC50 in series [1] stood at 50 nM.

As to `O=c1[nH]nc2c3c(cccc13)Oc1ccc(CN3CCN(c4ncccn4)CC3)cc1-2` [Compound 4c, 10-(4-Pyrimidin-2-yl-piperazin-1-ylmethyl)-2H-7-oxa-1,2-diaza-benzo[de]anthracen-3-one], the IC50 in series [1] is 30 nM.

In the case of `O=C1CCN(Cc2ccc3c(c2)-c2n[nH]c(=O)c4cccc(c24)O3)CC1` [Compound 4s, 10-(4-Oxo-piperidin-1-ylmethyl)-2H-7-oxa-1,2-diaza-benzo[de]anthracen-3-one], the IC50 in series [1] is 120 nM.

As to `O=c1[nH]nc2c3c(cccc13)Oc1ccc(CN3CCC(O)C3)cc1-2` (stereo not shown) [Compound 4l, 10-(3-Hydroxy-pyrrolidin-1-ylmethyl)-2H-7-oxa-1,2-diaza-benzo[de]anthracen-3-one], the IC50 in series [1] turned out to be 100 nM.

Turning to `CC(C)N1CCN(Cc2ccc3c(c2)-c2n[nH]c(=O)c4cccc(c24)O3)CC1` [Compound 4a, 10-(4-Isopropyl-piperazin-1-ylmethyl)2H-7-oxa-1,2-diaza-benzo[de]anthracen-3-one], the IC50 in series [1] is 30 nM.

On to `COCCN1CCN(Cc2ccc3c(c2)-c2n[nH]c(=O)c4cccc(c24)O3)CC1` [Compound 4b, 10-[4-(2-Methoxy-ethyl)-piperazin-1-ylmethyl]-2H-7-oxa-1,2-diaza-benzo[de]anthracen-3-one], for which the IC50 in series [1] was 20 nM.

With `O=c1[nH]nc2c3c(cccc13)Oc1ccc(CN3CC(O)C3)cc1-2` [Compound 4p, 10-(3-Hydroxy-azetidin-1-ylmethyl)-2H-7-oxa-1,2-diaza-benzo[de]anthracen-3-one], in series [1], the half-maximal inhibitory concentration (IC50) worked out at 30 nM.

As to `O=c1[nH]nc2c3c(cccc13)Oc1ccc(CN3CCCC(O)C3)cc1-2` (stereo not shown) [Compound 4o, 10-(3-Hydroxy-piperidin-1-ylmethyl)-2H-7-oxa-1,2-diaza-benzo[de]anthracen-3-one], the IC50 in series [1] is 50 nM.

On to `CC(C)N(Cc1ccc2c(c1)-c1n[nH]c(=O)c3cccc(c13)O2)C(C)C` [Compound 4k, 10-[(Diisopropylamino)-methyl]-2H-7-oxa-1,2-diaza-benzo[de]anthracen-3-one], for which, in series [1], the IC50 came out at 300 nM.

Regarding `CCN(CC)CCN(C)Cc1ccc2c(c1)-c1n[nH]c(=O)c3cccc(c13)O2` [Compound 4h, 10-{[(2-Diethylamino-ethyl)-methyl-amino]-methyl}-2H-7-oxa-1,2-diaza-benzo[de]anthracen-3-one], in series [1], the IC50 is 100 nM.

On to `O=c1[nH]nc2c3c(cccc13)Oc1ccc(CN3CCC(CCO)CC3)cc1-2` [Compound 4m, 10-[4-(2-Hydroxy-ethyl)-piperidin-1-ylmethyl]-2H-7-oxa-1,2-diaza-benzo[de]anthracen-3-one], for which, in series [1], the IC50 turned out to be 100 nM.

Regarding `O=c1[nH]nc2c3c(cccc13)Oc1ccc(CN[C@H]3CC[C@H](O)CC3)cc1-2` [Compound 4r, 10-[(4-Hydroxy-cyclohexylamino)-methyl]-2H-7-oxa-1,2-diaza-benzo[de]anthracen-3-one], the IC50 in series [1] was found to be 30 nM.

`O=C1CN(Cc2ccc3c(c2)-c2n[nH]c(=O)c4cccc(c24)O3)CCN1` [Compound 4d, 10-(3-Oxo-piperazin-1-ylmethyl)-2H-7-oxa-1,2-diaza-benzo[de]anthracen-3-one]: the IC50 in series [1] was 20 nM.

For `O=c1[nH]nc2c3c(cccc13)Oc1ccc(CN3CCC(O)CC3)cc1-2` [Compound 4i], in the series on B16 melanoma, the “growth of B16 melanoma vs TMZ alone” value is “significantly reduced”. In series [1], the IC50 stood at 40 nM. The figures for the MST in series [2] (Compound 4i 10 mg/kg po + TMZ 100 mg/kg ip x 5 days) and in series [2] (Compound 4i 40 mg/kg po + TMZ 100 mg/kg ip x 5 days) were 17 days and 21 days, respectively. In addition, the “ILS vs TMZ” value is reported as 21% in series [2] (Compound 4i 10 mg/kg po + TMZ x 5) and 50% in series [2] (Compound 4i 40 mg/kg po + TMZ x 5). In addition, the “mean survival time vs TMZ as single agent” value in series [2] (compound 4i + TMZ combination, mice bearing B16 melanoma) was “significantly higher”. Further, the “SNCV at the end of the experiment, mean” value in series [3] (CDDP 2 mg/kg IP twice a week for 4 weeks + 4i 40 mg/kg PO daily) amounted to 34.08 m/sec. Moreover, the “SNCV Mean Diff., CDDP vs CDDP + 4i” value in series [3] (setting [4]) is listed as −5.460. Moreover, the “tail nerve conduction velocity impairment due to chronic cisplatin treatment” value in series [3] is listed as “attenuate the deficits in nerve conduction velocity”; in series [3] (listed as compound 4i), “statistically significant reduction”. Also, in the series with DRG neurons (CDDP + 4i), the “Morphometry on DRG, Nu (nucleus), mean” value turned out to be 121.8 μm^2. Further, the “Morphometry on DRG, Nucl (nucleolus), mean” value in the series on DRG neurons (CDDP + 4i) turned out to be 8.069 μm^2. Besides, in the series on DRG neurons (CDDP + 4i), the “Morphometry on DRG, Soma, mean” value is reported as 822.1 μm^2. The “Nucleolus Mean Diff., CDDP vs CDDP + 4i” value with DRG neurons (setting [4]) is given as −0.4177. Further, in the series on DRG neurons (setting [4]), the “Soma Mean Diff., CDDP vs CDDP + 4i” value is reported as −138.7. Further, in the series with DRG neurons (cisplatin-treated rats with compound 4i), the “effect on DRG neuron morphometry” value is “significant effect only on the somatic size of DRG neurons”.

Turning to `O=c1[nH]nc2c3c(cccc13)Oc1ccc(CN3CCC4(CC3)OCCO4)cc1-2` [Compound 4n, 10-(1,4-Dioxa-8-aza-spiro[4.5]dec-8-ylmethyl)-2H-7-oxa-1,2-diaza-benzo[de]anthracen-3-one], the IC50 in series [1] was 100 nM.

Turning to `Cn1nnc2c(C(N)=O)ncn2c1=O` [TMZ, temozolomide, reference compound], the MST in series [2] (TMZ alone 100 mg/kg ip x 5) was 14 days.

For `[NH2][Pt]([NH2])([Cl])[Cl]` [CDDP, Cisplatin, reference compound], the “SNCV at the end of the experiment, mean” value in series [3] (CDDP alone 2 mg/kg IP twice a week for 4 weeks) came out at 28.62 m/sec. In addition, in the series with DRG neurons (CDDP alone), the “Morphometry on DRG, Nu (nucleus), mean” value is reported as 114.3 μm^2; the “Morphometry on DRG, Nucl (nucleolus), mean” value worked out at 7.651 μm^2; the “Morphometry on DRG, Soma, mean” value was 683.4 μm^2.

Turning to `CCN(CCO)Cc1ccc2c(c1)-c1n[nH]c(=O)c3cccc(c13)O2` [Compound 4j, 10-{[Ethyl-(2-hydroxy-ethyl)-amino]-methyl}-2H-7-oxa-1,2-diaza-benzo[de]anthracen-3-one], the IC50 in series [1] amounted to 100 nM.
